Laboratory results from PubChem BioAssay (NCI).
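Method: 48-hour compound exposure of cells in 96-well plates, five concentrations, linear interpolation of endpoints. GI50 is the concentration that inhibits growth by half. Definition used: TGI = concentration required for complete inhibition of growth.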

Assays:
Assay in all cases: DTP human tumour cell line panel, 48 h
[1] = test system: 786-0 renal
[2] = test system: A498 renal
[3] = test system: A549 NSCLC
[4] = test system: ACHN renal
[5] = test system: CAKI-1 renal
[6] = test system: CCRF-CEM leukemia
[7] = test system: COLO 205 colon
[8] = test system: DLD-1 colon
[9] = test system: DMS 114 small cell lung
[10] = test system: DMS 273 small cell lung
[11] = test system: HCT-116 colon
[12] = test system: HL-60(TB) leukemia
[13] = test system: HOP-18 NSCLC
[14] = test system: HOP-92 NSCLC
[15] = test system: HT29 colon
[16] = test system: IGROV1 ovarian
[17] = test system: K-562 leukemia
[18] = test system: KM12 colon
[19] = test system: KM20L2 colon
[20] = test system: LOX IMVI melanoma
[21] = test system: LXFL 529 NSCLC
[22] = test system: M14 melanoma
[23] = test system: MALME-3M melanoma
[24] = test system: MOLT-4 leukemia
[25] = test system: NCI-H226 lung
[26] = test system: NCI-H23 lung
[27] = test system: NCI-H460 lung
[28] = test system: NCI-H522 lung
[29] = test system: OVCAR-3 ovarian
[30] = test system: OVCAR-4 ovarian
[31] = test system: OVCAR-5 ovarian
[32] = test system: OVCAR-8 ovarian
[33] = test system: RPMI-8226 leukemia
[34] = test system: RXF 393 renal
[35] = test system: SF-268 CNS
[36] = test system: SF-295 CNS
[37] = test system: SF-539 CNS
[38] = test system: SK-MEL-2 melanoma
[39] = test system: SK-MEL-28 melanoma
[40] = test system: SK-MEL-5 melanoma
[41] = test system: SK-OV-3 ovarian
[42] = test system: SN12C renal
[43] = test system: SNB-19 CNS
[44] = test system: SNB-75 CNS
[45] = test system: SR leukemia
[46] = test system: SW-620 colon
[47] = test system: TK-10 renal
[48] = test system: U251 CNS
[49] = test system: UACC-257 melanoma
[50] = test system: UACC-62 melanoma
[51] = test system: UO-31 renal
[52] = test system: XF 498 CNS

`CC(=O)[CH-]C(C)=O.CC(=O)[CH-]C(C)=O.CC(=O)[CH-]C(C)=O.[In+3]` gave a GI50 [1] greater than 100 µM, a TGI [1] greater than 100 µM and a GI50 [2] greater than 100 µM. For the same compound, the TGI [2] was greater than 100 µM, the GI50 [3] was greater than 100 µM and the TGI [3] was greater than 100 µM. For the same compound, the GI50 [4] was greater than 100 µM, the TGI [4] was greater than 100 µM and the GI50 [5] was greater than 100 µM. For the same compound, the TGI [5] was greater than 100 µM, the GI50 [6] was greater than 100 µM and the TGI [6] was greater than 100 µM. The GI50 [7] was greater than 100 µM, the TGI [7] was greater than 100 µM and the GI50 [8] was greater than 100 µM. For the same compound, the TGI [8] was greater than 100 µM, the GI50 [9] was greater than 100 µM and the TGI [9] was greater than 100 µM. The GI50 [10] was greater than 100 µM, the TGI [10] was greater than 100 µM and the GI50 [11] was greater than 100 µM. The TGI [11] was greater than 100 µM, the GI50 [12] was greater than 100 µM and the TGI [12] was greater than 100 µM. For the same compound, the GI50 [13] was 52.4 µM, the TGI [13] was greater than 100 µM and the GI50 [14] was greater than 100 µM. For the same compound, the TGI [14] was greater than 100 µM, the GI50 [15] was greater than 100 µM and the TGI [15] was greater than 100 µM. The GI50 [16] was greater than 100 µM, the TGI [16] was greater than 100 µM and the GI50 [17] was greater than 100 µM. It also gave a TGI [17] greater than 100 µM, a GI50 [18] greater than 100 µM and a TGI [18] greater than 100 µM. It also gave a GI50 [19] greater than 100 µM, a TGI [19] greater than 100 µM and a GI50 [20] greater than 100 µM. The TGI [20] was greater than 100 µM, the GI50 [21] was greater than 100 µM and the TGI [21] was greater than 100 µM. It also gave a GI50 [22] greater than 100 µM, a TGI [22] greater than 100 µM and a GI50 [23] greater than 100 µM. It also gave a TGI [23] greater than 100 µM, a GI50 [24] greater than 100 µM and a TGI [24] greater than 100 µM. It also gave a GI50 [25] greater than 100 µM, a TGI [25] greater than 100 µM and a GI50 [26] greater than 100 µM. For the same compound, the TGI [26] was greater than 100 µM, the GI50 [27] was greater than 100 µM and the TGI [27] was greater than 100 µM. The GI50 [28] was greater than 100 µM, the TGI [28] was greater than 100 µM and the GI50 [29] was greater than 100 µM. For the same compound, the TGI [29] was greater than 100 µM, the GI50 [30] was greater than 100 µM and the TGI [30] was greater than 100 µM. For the same compound, the GI50 [31] was greater than 100 µM, the TGI [31] was greater than 100 µM and the GI50 [32] was greater than 100 µM. The TGI [32] was greater than 100 µM, the GI50 [33] was greater than 100 µM and the TGI [33] was greater than 100 µM. It also gave a GI50 [34] greater than 100 µM, a TGI [34] greater than 100 µM and a GI50 [35] greater than 100 µM. For the same compound, the TGI [35] was greater than 100 µM, the GI50 [36] was greater than 100 µM and the TGI [36] was greater than 100 µM. For the same compound, the GI50 [37] was greater than 100 µM, the TGI [37] was greater than 100 µM and the GI50 [38] was greater than 100 µM. For the same compound, the TGI [38] was greater than 100 µM, the GI50 [39] was greater than 100 µM and the TGI [39] was greater than 100 µM. It also gave a GI50 [40] greater than 100 µM, a TGI [40] greater than 100 µM and a GI50 [41] greater than 100 µM. The TGI [41] was greater than 100 µM, the GI50 [42] was greater than 100 µM and the TGI [42] was greater than 100 µM. The GI50 [43] was greater than 100 µM, the TGI [43] was greater than 100 µM and the GI50 [44] was greater than 100 µM. For the same compound, the TGI [44] was greater than 100 µM, the GI50 [45] was greater than 100 µM and the TGI [45] was greater than 100 µM. It also gave a GI50 [46] greater than 100 µM, a TGI [46] greater than 100 µM and a GI50 [47] greater than 100 µM. The TGI [47] was greater than 100 µM, the GI50 [48] was greater than 100 µM and the TGI [48] was greater than 100 µM. It also gave a GI50 [49] greater than 100 µM, a TGI [49] greater than 100 µM and a GI50 [50] greater than 100 µM. It also gave a TGI [50] greater than 100 µM, a GI50 [51] greater than 100 µM and a TGI [51] greater than 100 µM. The GI50 [52] was greater than 100 µM and the TGI [52] was greater than 100 µM.
